Measured values taken from US20240115577A1, “SMALL MOLECULE REGULATORS OF ALVEOLAR TYPE 2 CELL PROLIFERATION FOR THE TREATMENT OF PULMONARY DISEASES” (THE SCRIPPS RESEARCH INSTITUTE, priority 2021, published 2024).
Entries after “also recorded” stand apart in the source; their conditions may differ. Where two headings read alike, the source gives them in different places.

What was measured:
Primary human AEC2s = assay: AEC2 proliferation assay (Ki67 high content imaging); assay type: cell-based; details: for EC50: Homo sapiens
Description: To identify small molecules capable of proliferating AEC2s, as disclosed herein, we first established a culture system with primary human small airway epithelial cells (SAECs) from a commercial source.
AEC2 proliferation assay. Primary human AEC2s were plated at a density of 1,500 cells per well in black 384-well plates (Greiner) coated with 10 ug/mL. Laminin (Life Technologies) in 50 μL of Small Airway Epithelial Cell Growth Medium (Lonza) without EGF, retinoic acid and with 5% BPE. 100 nL of compound dissolved in DMSO was then delivered using a Biomek FX instrument (Beckman Coulter) fitted with a pintool head (V&P Scientific).

[1] = IT pharmacokinetics of dutogliptin (1) and dutogliptin boronate (15); assay type: in vivo, mouse; details: mouse, in vivo
Description: Like other […]. Dutogliptin (1) dosed IT in mice with PBS solution quickly cleared in lung (<24h. Table 8A). […] The parent drug dutogliptin was detected in plasma and lung. […] The drug was retained in the lung for over 48 h. The data clearly illustrated the unexpected lung retention ability of boronate prodrug 15.

HbA1c = details: once-a-day oral doses of 200 mg and 400 mg; cited from earlier work
[2] = system: acute lung injury induced by LPS; assay: LPS-induced acute lung injury (ALI) model; assay type: in vivo, mouse; details: for minimal efficacious dose in LPS lung injury model / Efficacy in LPS acute lung injury model, result in words: oral; for Efficacy in LPS acute lung injury model, result in words: histological scoring, BALF protein
Description: Experimental methods of Acute Lung Injury (ALI) model
LPS from E. coli […] (Sigma) was used to induce acute lung injury in mice. Body weight matched (19 gram˜22 gram) female C57BL/6J mice at 9-11 weeks of age were selected to use in ALI model.
Vehicle control or DPP4 inhibitors were dosed at 10 ml/kg through oral gavage once or twice a day selected based on PK profile. […] Vehicle control or DPP4 inhibitors were dosed at 2 ml/kg through a 22 g flexible catheter every other day.
DPP4 inhibitors or vehicle control were given to mice starting from one day before LPS injection (day −1).
All animals were sacrificed at day 3.5 after LPS injection. Bronchoalveolar lavage fluid (BALF) was retrieved using standard method. 1 ml 4% formalin was used to inflate the lung, which was subsequently fixed in 4% formalin for 24 hours and preserved in 70% EtOH until histological process.
For readouts, total protein content in BALF was quantified using BCA assay: pulmonary inflammation and damage were assessed using H&E staining.

[3] = system: bleomycin-induced lung fibrosis; assay: Bleomycin-induced lung fibrosis model; assay type: in vivo, mouse; details: for Dose required in mouse bleomycin / Dose required in mouse bleomycin, multiple of HED: Table 6; for Efficacy in bleomycin-induced lung fibrosis, result in words: oral, high doses
Description: Experimental Methods of Bleomycin Model Bleomycin (Hospira) was used to induce lung fibrosis in mice. Body weight matched (24 gram˜28 gram) male C57BL/6J mice at 10-12 weeks of age were selected to use in bleomycin model. For orally delivered DPP4 inhibitors. compounds were dissolved in PBS resulting in clear solution. […] For intratracheally delivered DPP4 inhibitors, compounds were dissolved in PBS resulting in clear solution. […] 0.5 U/kg Bleomycin or PBS in sham group was intratracheally injection into mice lung at day 0. […] All animals were sacrificed at day 20 after bleomycin injection. Bronchoalveolar lavage fluid (BALF) was retrieved using standard method. 1 ml 4% formalin was used to inflate the lung, which was subsequently fixed in 4% formalin for 24 hours and preserved in 70% EtOH until histological process. For readouts, body weight was measured every day; total protein content in BALF was quantified using BCA assay; pulmonary fibrosis was assessed using Masson's trichrome staining.

[4] = Pharmacokinetic profiling of four gliptins (oral, IT or OP); assay type: in vivo, mouse; details: for fraction of oral dose required by pulmonary (IT or OP) delivery for similar lung exposure: oral 100 mg/kg versus IT/OP 20 mg/kg
Description: B. Pharmacokinetic profiling. […] Thus, four of the five […] currently approved by the U.S. FDA were each administered to mice orally (100 mg/kg) or through intratracheal (IT) or oropharyngeal (OP) routes (20 mg/kg).

oral glucose tolerance = details: rodent models of diabetes; cited from earlier work
phospholipidosis = assay: Phospholipidosis assay in vitro; details: FIG. 7A; listed as Linagliptin
[5] = in vivo; cited from earlier work
[6] = Table 4, promotion of AEC2 proliferation, read-out: AEC2 EC50
[7] = Table 5, read-out: AEC2 proliferation
[8] = 4.4 mg/kg, Lung concentration of dutogliptin, Mean
[9] = 4.4 mg/kg, Lung concentration of dutogliptin, individual animals

| EC50 (Primary human AEC2s; [6]) | EC50 (Primary human AEC2s; [7]) | fraction of oral dose required by pulmonary (IT or OP) delivery for similar lung exposure [4] | SMILES | AEC2 proliferation, result in words (Primary human AEC2s) | Dose required in mouse ALI ([2]; Table 6) | minimal efficacious dose in LPS lung injury model [2] | Dose required in mouse bleomycin [3] | Dose required in mouse bleomycin, multiple of HED [3] | Efficacy in bleomycin-induced lung fibrosis, result in words [3] | dose with efficacy in OGTT model (oral glucose tolerance) | Dose required in mouse ALI, multiple of HED ([2]; Table 6) | Efficacy in LPS acute lung injury model, result in words ([2]; high doses) | also measured |
| --- | --- | --- | --- | --- | --- | --- | --- | --- | --- | --- | --- | --- | --- |
| 280 nM | 280 nM | – | O=C(CN[C@@H]1CCNC1)N1CCC[C@H]1B(O)O [Cpd 1, ((R)-1-(((R)-pyrrolidin-3-yl)glycyl)pyrrolidin-2-yl)boronic acid] | – | – | – | – | – | – | – | – | – | time to clearance from lung [1]: < 24 h; concentration at 3 h ([1]; 4.4 mg/kg, Bronchoalveolar lavage fluids concentration of dutogliptin, Mean): 309 ng/mL; concentration at 3 h ([1]; 4.4 mg/kg, Bronchoalveolar lavage fluids concentration of dutogliptin, individual animals): 400 ng/mL; concentration at 3 h [1, 8]: 6550 ng/g; concentration at 7 h [1, 8]: 4560 ng/g; concentration at 3 h [1, 9]: 6800 ng/g; concentration at 7 h [1, 9]: 3800 ng/g; concentration at 24 h [1, 9]: 3720 ng/g; HbA1c versus placebo (HbA1c): statistically reduced |
| 650 nM | 650 nM | one-fifth | N#C[C@@H]1C[C@@H]2C[C@@H]2N1C(=O)[C@@H](N)C12CC3C[C@@H](C1)C[C@@](O)(C3)C2 [Cpd 4, (1S,3S,5S)-2-((2S)-2-amino-2-((1S,3R,5S)-3-hydroxyadamantan-1-yl)acetyl)-2-azabicyclo[3.1.0]hexane-3-carbonitrile] | promote AEC2 proliferation to the same magnitude as NVP-728 | 50 mg/kg BID (10- | 50 mg/kg | 50 mg/kg BID | (10-20x HED) | efficacious | 0.5 to 5 mg/kg | – | – | Efficacy in LPS acute lung injury model, result in words ([2]; high doses, listed as Saxagliptin): efficacious; also recorded: promote repair; also recorded: dramatic improvements |
| – | – | one-fifth | CC#CCn1c(N2CCC[C@@H](N)C2)nc2c1c(=O)n(Cc1nc(C)c3ccccc3n1)c(=O)n2C [Cpd 5, (R)-8-(3-aminopiperidin-1-yl)-7-(but-2-yn-1-yl)-3-methyl-1-((4-methylquinazolin-2-yl)methyl)-3,7-dihydro-1H-purine-2,6-dione] | – | 1 mg/kg QD | – | >10 mg/kg qD | (>20x HED) | efficacious | – | model (2x HED) | efficacious | doses with antagonistic activity, repeat dosing ([2]; FIG. 7B): ≥ 2 mg/kg; efficacious dose, repeat dosing ([2]; FIG. 7B): 1 mg/kg; dose toxic in mouse ALI model ([2]; Table 6): 2 mg/kg; lung exposure over the evaluated time frame ([4]; versus other gliptins): considerably higher lung exposure; phospholipidosis induction (phospholipidosis): significant phospholipidosis at low concentrations; also recorded: induces phospholipidosis |

More lines, now with the values behind:

| SMILES | EC50 (Primary human AEC2s; [6]) | EC50 (Primary human AEC2s; [7]) | fraction of oral dose required by pulmonary (IT or OP) delivery for similar lung exposure [4] | AEC2 proliferation, result in words (Primary human AEC2s) | Dose required in mouse ALI ([2]; Table 6) | minimal efficacious dose in LPS lung injury model [2] | Dose required in mouse bleomycin [3] | Dose required in mouse bleomycin, multiple of HED [3] | Efficacy in bleomycin-induced lung fibrosis, result in words [3] | dose with efficacy in OGTT model (oral glucose tolerance) | Dose required in mouse ALI, multiple of HED ([2]; Table 6) | Efficacy in LPS acute lung injury model, result in words ([2]; high doses) | also measured |
| --- | --- | --- | --- | --- | --- | --- | --- | --- | --- | --- | --- | --- | --- |
| Cc1cc(N2CCN([C@@H]3CN[C@H](C(=O)N4CCSC4)C3)CC2)n(-c2ccccc2)n1 [Cpd 8, ((2S,4S)-4-(4-(3-methyl-1-phenyl-1H-pyrazol-5-yl)piperazin-1-yl)pyrrolidin-2-yl)(thiazolidin-3-yl)methanone] | – | – | – | – | – | – | – | – | – | – | – | – | Adverse Events [5]: 160 mg/day cardiac safety |
| N[C@@H](CC(=O)N1CCn2c(nnc2C(F)(F)F)C1)Cc1cc(F)c(F)cc1F [Sitagliptin] | – | 560 nM | one-fifth | promote AEC2 proliferation to the same magnitude as NVP-728 | 100 mg/kg BID | 100 mg/kg | 100 mg/kg mg/kg BID | – | efficacious; also recorded: ameliorative efficacy; also recorded: robust protection | 3 to 30 mg/kg | (10-20x HED) | efficacious; also recorded: promote repair; also recorded: dramatic improvements | proliferative AEC2s (KI-67 SFPTC double positive cells) ([2]; LPS model): substantial increase; total number of cells (all nuclei) or Ki-67 positive cells in the lung ([2]; LPS model): does not significantly increase; cytokine or BALF levels at early timepoints ([2]; high doses, time course): do not affect; protection in bleomycin model, co-treatment with Nintedanib (Ofev) ([3]; Bliss independence calculations): synergistic protection |
